Experimental findings from US20230234967A1, “Fused Azole Heterocycles as AHR Antagonists” (Senda Biosciences, Inc., priority 2021, published 2023) are described below.

As usually defined, the solubility is how much of the substance goes into solution per volume. The term IC50 denotes the point on the concentration scale where inhibition reaches its midpoint.

Molecules are shown by their SMILES. Bounds are passed on as bounds.

Test system in the first series: not listed separately
The series is described as follows: Solubility Determination Assay (PBS pH 1.6 and pH 7.4). Format: physicochemical. The note with it: PBS buffer, aqueous buffer, kinetic from dmso stock; PBS pH 1.6, 25° C., 2 hours shaking; read-out: Aq. Solubility at pH = 1.6. As to the method: Example 31: Solubility Determination Assay
The stock solutions of test compounds and control compound progesterone were prepared in DMSO at the concentrations of 10 mM. 15 μL of stock solution (10 mM) of each sample was placed in order into their proper 96-well rack. 485 μL of PBS pH 1.6 and pH 7.4 were added into each vial of the cap-less Solubility Sample plate. The assay was performed in singlet. One stir stick was added to each vial and then the vial was sealed using a molded PTFE/Silicone plug. The solubility sample plates were then transferred to the Eppendorf Thermomixer Comfort plate shaker and shaken at 25° C. at 1100 rpm for 2 hours. After completion of the 2 hours, plugs were removed and the stir sticks were removed using a big magnet. The samples from the Solubility Sample plate were transferred into the filter plate. Using the Vacuum Manifold, all the samples were filtered. An aliquot of 5 μL was taken from the filtrate followed by addition of 495 μL of a mixture of H2O and acetonitrile containing internal standard (1:1). A certain proportion of ultrapure water was used to dilute the diluent according to the peak shape. The dilution factor was changed according to the solubility values and the LC-MS signal response.
From the 10 mM DMSO STD plate, 6 μL was transferred into the remaining empty plate, and then 194 μL of DMSO were added to that plate to have a STD concentration of 300 μM. From the 300 μM DMSO STD plate, 5 μL were transferred into the remaining empty plate, and then 495 μL of a mixture of H2O and acetonitrile containing internal standard (1:1) were added to that plate to have a final STD concentration of 3 μM. A certain proportion of ultrapure water was used to dilute the diluent according to the peak shape. The concentrations of the standard samples were changed according to the LC-MS signal response.
The plate was placed into the well plate autosampler. The samples were evaluated by LC-MS/MS analysis.
All calculations were carried out using Microsoft Excel.
The filtrate was analyzed and quantified against a standard of known concentration using LC coupled with mass spectral peak identification and quantitation. Solubility values of the test compound and control compound were calculated as follows: […]
Any value of the compounds that was not within the specified limits was rejected and the experiment was repeated.
“+++” indicates a solubility value equal to or greater than […] “++” indicates a solubility value between 0.1 and 1 μM and “+” indicates a solubility value less than 0.1 μM.
With `Cc1ccccc1-c1cc2ncc(NC(=O)c3ccnn3C)cc2[nH]1` [Product 49, 1-methyl-N-(2-(o-tolyl)-1H-pyrrolo[3,2-b]pyridin-6-yl)-1H-pyrazole-5-carboxamide], the solubility at 2 h is not below 1 µM.

The same series, now with this note: PBS buffer, aqueous buffer, kinetic from dmso stock; PBS pH 7.4, 25° C., 2 hours shaking; read-out: Aq. Solubility at pH = 7.4.
Turning to `Cc1ccccc1-c1cc2ncc(NC(=O)c3ccnn3C)cc2[nH]1` [Product 49, 1-methyl-N-(2-(o-tolyl)-1H-pyrrolo[3,2-b]pyridin-6-yl)-1H-pyrazole-5-carboxamide], the solubility at 2 h is not below 1 µM.

A further series deals with T1, AHR (Homo sapiens, UniProt P35869).
T1 construct: other cell line with a DRE-luciferase reporter stably transfected; endogenous in cells; host or cells: Human HepG2 liver carcinoma AhR-Lucia reporter cells
T1 sequence (P35869 11-848): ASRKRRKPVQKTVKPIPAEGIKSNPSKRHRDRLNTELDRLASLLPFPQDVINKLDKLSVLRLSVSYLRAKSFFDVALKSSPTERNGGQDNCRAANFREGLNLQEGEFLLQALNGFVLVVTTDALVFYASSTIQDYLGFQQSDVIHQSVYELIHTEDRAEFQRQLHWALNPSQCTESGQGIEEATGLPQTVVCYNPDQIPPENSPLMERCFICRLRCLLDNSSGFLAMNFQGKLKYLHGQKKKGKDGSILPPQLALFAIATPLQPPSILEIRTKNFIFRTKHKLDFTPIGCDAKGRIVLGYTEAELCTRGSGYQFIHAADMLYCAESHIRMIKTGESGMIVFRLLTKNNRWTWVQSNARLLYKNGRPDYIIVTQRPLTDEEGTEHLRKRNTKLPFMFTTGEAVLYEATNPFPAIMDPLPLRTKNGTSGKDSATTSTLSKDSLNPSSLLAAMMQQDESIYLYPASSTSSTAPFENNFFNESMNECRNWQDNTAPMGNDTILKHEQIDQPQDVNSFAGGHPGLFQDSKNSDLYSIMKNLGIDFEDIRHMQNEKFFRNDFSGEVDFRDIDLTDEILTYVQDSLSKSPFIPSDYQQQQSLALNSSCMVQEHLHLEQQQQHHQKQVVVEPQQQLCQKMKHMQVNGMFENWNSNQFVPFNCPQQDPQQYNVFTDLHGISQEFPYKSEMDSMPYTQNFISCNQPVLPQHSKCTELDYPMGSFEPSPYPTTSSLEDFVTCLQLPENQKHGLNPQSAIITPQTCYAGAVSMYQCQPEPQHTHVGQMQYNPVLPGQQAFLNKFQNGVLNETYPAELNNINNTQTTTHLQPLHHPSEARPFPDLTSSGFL
As to the kind of experiment: DRE-Luciferase Reporter Assay (HepG2 AhR-Lucia reporter cells). The note with it: AHR activating ligand at its EC50, luciferase read-out, read-out: HEPG2 Luc IC50. The class given is cell-based. An excerpt: Example 27: DRE-Luciferase Reporter Assay
AHR binds to Dioxin Responsive Elements (DRE) upstream of genes that it activates. One measure of AHR activity is activation of a reporter gene, such as luciferase, downstream of one or multiple DRE elements. Luciferase activity will reflect activation and inhibition of AHR in the cells expressing his reporter. 20000 Human HepG2 liver carcinoma—AhR-Lucia reporter cells or Human HT29 colon adenocarcinoma—AhR reporter cells or other cell line with a DRE-luciferase reporter stably transfected were plated in Eagle's Minimal Essential Medium, 10% heat-inactivated FBS, 1×non-essential amino acids Pen-Strep (10,000 U/mL) and Normocin (100 ug/mL) in plates (96-well, 384-well or other plates) and incubated overnight at 37° C. in a CO2 incubator and treated with and without AhR antagonists at a log dilution starting at 100 uM.
After 1 hr that cells were plated an AHR activating ligand, such as TCDD, kynurenine, ITE (2-(1H-indole-3-ylcarbonyl)-4-thiazolecarboxylic methyl ester), VAF347, BNF (beta-naphthoflavone), FICZ (6-formylindolo(3,2-b) carbazole) or other AHR ligands at their specific EC50 concentration, were added to the cells with or without AHR antagonist.
Cells were incubated for 24 or 48 hours or another time point and then, supernatant was analyzed for determination of luciferase activity as a read-out of the AHR activation or inhibition. Luciferase was measured with the commercial kit QUANTI-Luc™ assay solution kit from Invivogen following the manufacturer's instructions.
The level of luciferase with only agonist ligand added was the maximum signal while the luciferase with […] was the minimum signal. IC50 values were determined as the concentration which inhibits half of the luciferase activity. “A” indicates an IC50 value less than 100 nM, “B” indicates an IC50 between 100 and 500 nM, “C” indicates an IC50 above 500 nM.
A general note: Reporter assays use an easily measured gene product as a stand-in for the process of interest.
For the molecule `Cc1ccccc1-c1cc2ncc(NC(=O)c3ccnn3C)cc2[nH]1` [Product 49, 1-methyl-N-(2-(o-tolyl)-1H-pyrrolo[3,2-b]pyridin-6-yl)-1H-pyrazole-5-carboxamide], the IC50 was 0.1 to 0.5 µM.

`Cn1cc(-c2ccc3nc(NC(=O)c4ccnn4C)sc3n2)cn1` [Product 22, 1-Methyl-N-(5-(1-methyl-1H-pyrazol-4-yl)thiazolo[5,4-b]pyridin-2-yl)-1H-pyrazole-5-carboxamide]: the IC50 lay in the range of 0.1 to 0.5 µM.

Consider `Cc1ncsc1-c1ccc2nc(NC(=O)c3ccnn3C)sc2n1` [Product 31, 1-Methyl-N-(5-(4-methylthiazol-5-yl)thiazolo[5,4-b]pyridin-2-yl)-1H-pyrazole-5-carboxamide], for which the IC50 is 0.1 to 0.5 µM.

In the case of `COc1ccccc1-c1ccc2nc(NC(=O)c3cccnc3)sc2n1` [Product 13, N-(5-(2-methoxyphenyl)thiazolo[5,4-b]pyridin-2-yl)nicotinamide], the IC50 was 0.1 to 0.5 µM.

With `Cn1ncnc1C(=O)Nc1cnc2cc(-c3ccccc3C(F)(F)F)[nH]c2c1` [Product 45], the concentration for half-maximal inhibition (IC50) is less than 0.1 µM.

Consider `Cc1ccccc1-c1ccc2nc(NC(=O)c3ccncc3)sc2n1` [Product 10, N-(5-(o-tolyl)thiazolo[5,4-b]pyridin-2-yl)isonicotinamide], for which the IC50 is more than 0.5 µM.

Regarding `CC(=O)N(C)c1ccccc1-c1ccc2nc(NC(=O)c3ccnn3C)sc2n1` [Product 36, 1-methyl-N-(5-(2-(N-methylacetamido)phenyl)thiazolo[5,4-b]pyridin-2-yl)-1H-pyrazole-5-carboxamide], the IC50 is more than 0.5 µM.

Regarding `Cc1csc(-c2ccc3nc(NC(=O)c4ccnn4C)sc3n2)n1` [Product 32, 1-Methyl-N-(5-(4-methylthiazol-2-yl)thiazolo[5,4-b]pyridin-2-yl)-1H-pyrazole-5-carboxamide], the concentration for half-maximal inhibition (IC50) was more than 0.5 µM.

As to `COc1ccccc1-c1ccc2nc(NC(=O)c3ncnn3C)sc2n1` [Product 4, N-(5-(2-methoxyphenyl)thiazolo[5,4-b]pyridin-2-yl)-1-methyl-1H-1,2,4-triazole-5-carboxamide], the IC50 was 0.1 to 0.5 µM.

In the case of `Cn1ncnc1C(=O)Nc1nc2ccc(-c3ccccc3C(F)(F)F)nc2s1` [Product 6, 1-Methyl-N-(5-(2-(trifluoromethyl)phenyl)thiazolo[5,4-b]pyridin-2-yl)-1H-1,2,4-triazole-5-carboxamide], the half-maximal inhibitory concentration (IC50) is more than 0.5 µM.

Turning to `Cc1nc(C)c(-c2ccc3nc(NC(=O)c4ccnn4C)sc3n2)s1` [Product 33, N-(5-(2,4-dimethylthiazol-5-yl)thiazolo[5,4-b]pyridin-2-yl)-1-methyl-1H-pyrazole-5-carboxamide], the IC50 was 0.1 to 0.5 µM.

In the case of `Cc1ccccc1-c1ccc2nc(NC(=O)c3cccnc3)sc2n1` [Product 9, N-(5-(o-tolyl)thiazolo[5,4-b]pyridin-2-yl)nicotinamide], the IC50 was more than 0.5 µM.
